Test system: F. hepatica newly excysted juveniles (NEJs), Italian strain
Assay: Ex vivo screen against newly excysted juveniles (NEJs), phenotype and motility scoring
Assay type: cell-based, Fasciola hepatica
Details: 10 µM; for Average motility of 25 NEJs with 95% CI, 24 hours / Average motility of 25 NEJs with 95% CI, 48 hours / Average motility of 25 NEJs with 95% CI, 72 hours: motility score 1 good/normal to 5 no movement; for Average phenotype of 25 NEJs with 95% CI, 24 hours / Average phenotype of 25 NEJs with 95% CI, 48 hours / Average phenotype of 25 NEJs with 95% CI, 72 hours: ultrastructure score 1 normal to 6 dead or dissolved; for Activity against NEJs (first screen), in words: 72 h co-culture
Procedure: […] The NEJs were excysted from metacercariae and assayed at 10 μM (in 0.1% DMSO) final concentration alongside negative (0.1% DMSO) and positive (10 μM TCBZ, in 0.1% DMSO) controls as previously described. The MC and IVL compound series were screened separately.
The motility (1—good/normal; 2—moderate; 3—low; 4—very little; 5—no movement) and phenotypic (ultrastructural changes) scores were noted according to a previously described scoring matrix (Figure S1 and Table S2).

Row | Structure (SMILES) | Average motility of 25 NEJs with 95% CI, 24 hours | Average phenotype of 25 NEJs with 95% CI, 24 hours | Average motility of 25 NEJs with 95% CI, 48 hours | Average phenotype of 25 NEJs with 95% CI, 48 hours | Average motility of 25 NEJs with 95% CI, 72 hours | Average phenotype of 25 NEJs with 95% CI, 72 hours | Activity against NEJs (first screen), in words
1 | CC1(C)CC[C@]2(N=C=O)CC[C@]3(C)C(=CCC4[C@@]5(C)CCC6OC(C)(C)OC[C@@]6(C)C5CC[C@]43C)C2C1 (stereo partly drawn) [MC015, (4aR,6aR,6bS,8aS,14bR)-8a-Isocyanato-2,2,4a,6a,6b,11,11,14b-octamethyl-4a,4b,5,6,6a,6b,7,8,8a,9, 10,11,12,12a,14,14a,14b,15,16,16a-eicosahydro-4H-piceno[3,4-d][1,3]dioxine] | 2.56 (2;3) | 2.24 (1.6;2.8) | 3.08 (2.4;3.6) | 2.84 (2;3.5) | 3.12 (2.4;3.7) | 3.56 (2.7;4.3) | None of the three passed the first screen
2 | CC1(C)CC[C@]2(NC(=O)NCc3ccccc3)CC[C@]3(C)C(=CCC4[C@@]5(C)CCC6OC(C)(C)OC[C@@]6(C)C5CC[C@]43C)C2C1 (stereo partly drawn) [MC017, 1-Benzyl-3-((4aR,6aR,6bS,8aS,14bR)-2,2,4a,6a,6b,11,11,14b-octamethyl-4a,5,6,6a,6b,7,8,9,10,11,12,12a,14,14a,14b,15,16,16a-octadecahydro-4H-piceno[3,4-d][1,3]dioxin-8a(4bH)-yl)urea] | 4.12 (3.7;4.5) | 3.28 (2.5;4) | 4.0 (3.5; 4.4) | 4.04 (3.3;4.6) | 3.92 (3.3; 4.4) | 4.12 (3.4;4.7) | 
3 | CCCCOC(=O)N[C@]12CCC(C)(C)CC1C1=CCC3[C@@]4(C)CCC5OC(C)(C)OC[C@@]5(C)C4CC[C@@]3(C)[C@]1(C)CC2 (stereo partly drawn) [MC019, Butyl ((4aR,6aR,6bS,8aS,14bR)-2,2,4a,6a,6b,11,11,14b-octamethyl-4a,5,6,6a,6b,7,8,9,10, 11,12,12a,14, 14a,14b,15,16,16a-octadecahydro-4H-piceno[3,4-d][1,3]dioxin-8a(4bH)-yl)carbamate] | 2.24 (1.7;2.7) | 2.40 (1.8;2.9) | 4.00 (3.7;4.2) | 3.20 (2.6;3.7) | 4.36 (3.9;4.7) | 3.40 (2.7;4) | inactive against NEJs
4 | CCCNC(=O)N[C@]12CCC(C)(C)CC1C1=CCC3[C@@]4(C)CCC5OC(C)(C)OC[C@@]5(C)C4CC[C@@]3(C)[C@]1(C)CC2 (stereo partly drawn) [MC022, 1-((4aR,6aR,6bS,8aS,14bR)-2,2,4a,6a,6b,11,11,14b-Octamethyl-4a,5,6,6a,6b,7,8,9,10,11, 12,12a,14,14a, 14b,15,16,16a-octadecahydro-4H-piceno[3,4-d][1,3]dioxin-8a(4bH)-yl)-3-propylurea] | 2.68 (1.9;3.4) | 4.60 (4.2;4.9) | 4.12 (3.7;4.4) | 5.08 (4.7;5.4) | 4.96 (4.8;5) | 5.88 (5.6;6.1) | inactive against NEJs
5 | COC(=O)[C@@H](NC(=O)N[C@]12CCC(C)(C)CC1C1=CCC3[C@@]4(C)CCC5OC(C)(C)OC[C@@]5(C)C4CC[C@@]3(C)[C@]1(C)CC2)C(C)C (stereo partly drawn) [MC027, Methyl (((4aR,6aR,6bS,8aS,14bR)-2,2,4a,6a,6b,11,11,14b-octamethyl-4a,5,6,6a,6b,7,8,9,10, 11,12,12a, 14,14a,14b,15,16,16a-octadecahydro-4H-piceno[3,4-d][1,3]dioxin-8a(4bH)-yl)-carbamoyl)-L-valinate] | 3.48 (2.9;3.9) | 3.32 (2.5;4.1) | 4.72 (4.4;4.9) | 4.64 (3.9;5.3) | 4.76 (4.4;5) | 5.48 (4.9;5.9) | 
